Assay results as given in PubChem BioAssay AID330 (DTP/NCI, 2004).
Where “and” joins values, the source holds several entries; their conditions need not be identical. Equal entries are not always repeated. Toxic doses and inconclusive results are not listed.

System: P388 leukemia ip, CD2F1 mice, survival T/C
Experiment: NCI In Vivo Anticancer Drug Screen. Data for tumor model P388 Leukemia (intraperitoneal) in CD2F1 (CDF1) mice
Conditions: endpoint: median survival time, higher = longer survival
Method in brief: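 Mice carrying the transplanted tumor received test compound or vehicle. Survival was recorded in each group, and the value is the treated-group measurement divided by that of the vehicle-treated control group.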

[1] = dose: 50.0 mg/kg/injection, schedule: Q01DX005 (ip), vehicle: saline with Tween-80
[2] = dose: 50.0 mg/kg/injection, schedule: Q01DX009 (ip), vehicle: saline with Tween-80
[3] = dose: 100.0 mg/kg/injection, schedule: Q01DX009 (ip), vehicle: saline with Tween-80
[4] = dose: 200.0 mg/kg/injection, schedule: Q01DX009 (ip), vehicle: saline with Tween-80

[CH3][Sn]([CH3])([O]C(=O)CNC(=O)c1ccccc1)[O]C(=O)CNC(=O)c1ccccc1
T/C (dose: 0.79 mg/kg/injection, schedule: Q01DX001 (ip), vehicle: Klucel (hydroxypropylcellulose) (HPC)): 97 % of control | T/C (dose: 1.56 mg/kg/injection, schedule: Q01DX001 (ip), vehicle: Klucel (hydroxypropylcellulose) (HPC)): 93 % of control | T/C (dose: 3.12 mg/kg/injection, schedule: Q01DX001 (ip), vehicle: Klucel (hydroxypropylcellulose) (HPC)): 100 % of control

C=C(C)C(=O)N(CC)CC
T/C (dose: 100.0 mg/kg/injection, schedule: Q01DX009 (ip), vehicle: saline): 97 % of control | T/C (dose: 200.0 mg/kg/injection, schedule: Q01DX009 (ip), vehicle: saline): 102 % of control

O=C1c2ccccc2C(=C(c2ccccc2)c2ccccc2)c2ccccc21
T/C (dose: 50.0 mg/kg/injection, schedule: Q01DX005 (ip), vehicle: Klucel (hydroxypropylcellulose) (HPC)): 89 % of control | T/C (dose: 100.0 mg/kg/injection, schedule: Q01DX005 (ip), vehicle: Klucel (hydroxypropylcellulose) (HPC)): 88 % of control | T/C (dose: 200.0 mg/kg/injection, schedule: Q01DX005 (ip), vehicle: Klucel (hydroxypropylcellulose) (HPC)): 86 % of control

C/C=C1/CN2CCC34c5ccccc5N5C(=O)C(C6CC78c9ccccc9N9C(=O)C=CC(C%10CC7N6C/C%10=C/C)C98)=CC(C1CC23)C54 (stereo not given)
T/C (dose: 10.0 mg/kg/injection, schedule: Q01DX009 (ip), vehicle: saline with Tween-80): 99 % of control | T/C (dose: 20.0 mg/kg/injection, schedule: Q01DX009 (ip), vehicle: saline with Tween-80): 104 % of control | T/C (dose: 40.0 mg/kg/injection, schedule: Q01DX009 (ip), vehicle: saline with Tween-80): 104 % of control | T/C (dose: 80.0 mg/kg/injection, schedule: Q01DX009 (ip), vehicle: saline with Tween-80): 88 % of control

COc1cc(NCCN(C)C(C)Cc2ccccc2)c2ncccc2c1 (stereo not given)
T/C (dose: 50.0 mg/kg/injection, schedule: Q01DX005 (ip), vehicle: saline): 106 % of control | T/C (dose: 100.0 mg/kg/injection, schedule: Q01DX005 (ip), vehicle: saline): 104 % of control

C[C@]12CC[C@H](OC(=O)/C=C\c3ccc(N(CCCl)CCCl)cc3)CC1CC[C@@H]1C2CC[C@]2(C)NC(=O)CCC12 (stereo not given in full)
T/C (dose: 100.0 mg/kg/injection, schedule: Q01DX001 (ip), vehicle: saline with Tween-80): 100 % of control | T/C (dose: 200.0 mg/kg/injection, schedule: Q01DX001 (ip), vehicle: saline with Tween-80): 100 % of control | T/C (dose: 400.0 mg/kg/injection, schedule: Q01DX001 (ip), vehicle: saline with Tween-80): 100 % of control

O=C1c2ccccc2C(=O)c2c(NCCNCCO)ccc(O)c21
T/C (dose: 1.25 mg/kg/injection, schedule: Q01DX009 (ip), vehicle: acid diluted with saline): 118 % of control and 122 % of control | T/C (dose: 2.5 mg/kg/injection, schedule: Q01DX009 (ip), vehicle: acid diluted with saline): 216 % of control | T/C (dose: 3.12 mg/kg/injection, schedule: Q04DX002 (ip), vehicle: water): 110 % of control | T/C (dose: 5.0 mg/kg/injection, schedule: Q01DX005 (ip), vehicle: saline): 258 % of control | T/C (dose: 5.0 mg/kg/injection, schedule: Q01DX005 (iv), vehicle: saline): 119 % of control | T/C (dose: 5.0 mg/kg/injection, schedule: Q01DX009 (ip), vehicle: acid diluted with saline): 274 % of control | T/C (dose: 5.0 mg/kg/injection, schedule: Q01DX009 (ip), vehicle: distilled water + Tween-80): 177 % of control | T/C (dose: 6.25 mg/kg/injection, schedule: Q04DX002 (ip), vehicle: other): 120 % of control | T/C (dose: 10.0 mg/kg/injection, schedule: Q01DX001 (iv), vehicle: saline): 108 % of control | T/C (dose: 10.0 mg/kg/injection, schedule: Q01DX005 (ip), vehicle: saline): 276 % of control | T/C (dose: 10.0 mg/kg/injection, schedule: Q01DX005 (iv), vehicle: saline): 151 % of control | T/C (dose: 10.0 mg/kg/injection, schedule: Q01DX009 (ip), vehicle: acid diluted with saline): 436 % of control | T/C (dose: 10.0 mg/kg/injection, schedule: Q01DX009 (ip), vehicle: distilled water + Tween-80): 247 % of control | T/C (dose: 10.0 mg/kg/injection, schedule: Q04DX003 (ip), vehicle: saline): 185 % of control | T/C (dose: 10.0 mg/kg/injection, schedule: Q04DX003 (iv), vehicle: saline): 116 % of control | T/C (dose: 19.4 mg/kg/injection, schedule: Q04DX003 (ip), vehicle: saline): 259 % of control | T/C (dose: 20.0 mg/kg/injection, schedule: Q01DX001 (ip), vehicle: saline): 190 % of control | T/C (dose: 20.0 mg/kg/injection, schedule: Q01DX001 (iv), vehicle: saline): 116 % of control | T/C (dose: 20.0 mg/kg/injection, schedule: Q01DX005 (ip), vehicle: saline): 312 % of control | T/C (dose: 20.0 mg/kg/injection, schedule: Q01DX005 (iv), vehicle: saline): 177 % of control | T/C (dose: 20.0 mg/kg/injection, schedule: Q01DX009 (ip), vehicle: acid diluted with saline): 158 % of control | T/C (dose: 20.0 mg/kg/injection, schedule: Q01DX009 (ip), vehicle: distilled water + Tween-80): 211 % of control | T/C (dose: 20.0 mg/kg/injection, schedule: Q04DX003 (ip), vehicle: saline): 214 % of control | T/C (dose: 25.0 mg/kg/injection, schedule: Q04DX002 (ip), vehicle: other): 116 % of control | T/C (dose: 25.0 mg/kg/injection, schedule: Q04DX002 (ip), vehicle: water): 198 % of control | T/C (dose: 32.4 mg/kg/injection, schedule: Q04DX003 (ip), vehicle: saline): 211 % of control | T/C (dose: 40.0 mg/kg/injection, schedule: Q01DX001 (ip), vehicle: saline): 205 % of control | T/C (dose: 40.0 mg/kg/injection, schedule: Q01DX009 (ip), vehicle: acid diluted with saline): 150 % of control and 163 % of control | T/C (dose: 40.0 mg/kg/injection, schedule: Q04DX003 (ip), vehicle: saline): 223 % of control | T/C (dose: 50.0 mg/kg/injection, schedule: Q04DX002 (ip), vehicle: other): 103 % of control | T/C (dose: 50.0 mg/kg/injection, schedule: Q04DX002 (ip), vehicle: water): 261 % of control | T/C (dose: 80.0 mg/kg/injection, schedule: Q01DX001 (ip), vehicle: saline): 178 % of control | T/C (dose: 100.0 mg/kg/injection, schedule: Q04DX002 (ip), vehicle: water): 157 % of control and 161 % of control | T/C (dose: 200.0 mg/kg/injection, schedule: Q04DX002 (ip), vehicle: water): 188 % of control

NC(=O)N=Nc1ccc(Cl)cc1
T/C [1]: 104 % of control | T/C (dose: 100.0 mg/kg/injection, schedule: Q01DX005 (ip), vehicle: saline with Tween-80): 101 % of control | T/C (dose: 200.0 mg/kg/injection, schedule: Q01DX005 (ip), vehicle: saline with Tween-80): 104 % of control

[N-]=[N+]=NCC(=O)N1c2ccccc2Sc2ccccc21
T/C (dose: 25.0 mg/kg/injection, schedule: Q01DX009 (ip), vehicle: other): 108 % of control | T/C (dose: 50.0 mg/kg/injection, schedule: Q01DX009 (ip), vehicle: other): 103 % of control | T/C (dose: 100.0 mg/kg/injection, schedule: Q01DX009 (ip), vehicle: other): 95 % of control | T/C (dose: 200.0 mg/kg/injection, schedule: Q01DX009 (ip), vehicle: other): 108 % of control

Cc1ccc(N/N=C2\CC(=O)NC(=O)N2)cc1C
T/C [2]: 104 % of control | T/C [3]: 104 % of control | T/C [4]: 99 % of control

CC1(C)CN(C(C)(C)C)CN2C1OCC2(C)C (stereo not given)
T/C [2]: 101 % of control | T/C [3]: 112 % of control | T/C [4]: 112 % of control

CCOc1ccc(OCC)c(NC(=O)c2ccccc2)c1
T/C (dose: 100.0 mg/kg/injection, schedule: Q04DX003 (ip), vehicle: saline with Tween-80): 100 % of control | T/C (dose: 200.0 mg/kg/injection, schedule: Q04DX003 (ip), vehicle: saline with Tween-80): 95 % of control | T/C (dose: 400.0 mg/kg/injection, schedule: Q04DX003 (ip), vehicle: saline with Tween-80): 95 % of control

CCN(CC)CCOCCc1ccccc1
T/C (dose: 12.5 mg/kg/injection, schedule: Q01DX005 (ip), vehicle: saline with Tween-80): 98 % of control | T/C (dose: 25.0 mg/kg/injection, schedule: Q01DX005 (ip), vehicle: saline with Tween-80): 98 % of control | T/C [1]: 98 % of control and 100 % of control

CCCCCCCCCCCCCCCC(=O)O[C@@H]1[C@@H](C)[C@@]2(O)[C@@H](C=C(CO)C[C@]3(O)C(=O)C(C)=C[C@@H]23)[C@H]2[C@]1(OC(C)=O)[C@]2(C)CO
T/C (dose: 0.13 mg/kg/injection, schedule: Q01DX005 (ip), vehicle: distilled water + Tween-80): 117 % of control and 120 % of control | T/C (dose: 0.25 mg/kg/injection, schedule: Q01DX005 (ip), vehicle: distilled water + Tween-80): 111 % of control | T/C (dose: 0.5 mg/kg/injection, schedule: Q01DX005 (ip), vehicle: distilled water + Tween-80): 106 % of control

CC(C)c1cc(C(C)C)c(S(=O)(=O)ON)c(C(C)C)c1
T/C (dose: 100.0 mg/kg/injection, schedule: Q04DX002 (ip), vehicle: saline): 112 % of control | T/C (dose: 200.0 mg/kg/injection, schedule: Q04DX002 (ip), vehicle: saline): 99 % of control
